According to patent US20250295627A1 (Leibniz-Institut Fuer Neurobiologie, priority 2022, published 2025):

Tests used:
pCREB [1] = assay: Aβ-induced CREB shutoff (nuclear pCREB) in hippocampal primary neurons; format: cell-based, rat
Protocol: (§1) Hippocampal and cortical cultures were prepared from Wistar rat embryos (E18) of mixed sex as described previously (Spilker et al., 2016). Briefly, dissected were digested for 15 min with trypsin at 37° C. Neurons were plated on plastic 12-well dishes (Greiner) on glass coverslips coated with poly-L-lysine (Sigma-Aldrich) at a density of 60 000 cells/well in DMEM medium (Gibco, Thermo Fisher Scientific) supplemented with 10% FCS, 1× penicillin/streptomycin, and 2 mM glutamine. After 1 h incubation (at the 37° C., 5% CO2, 95% humidity) cells were kept in BrainPhys medium supplemented with 1% SM1 (Stemmcell Technologies), 0.5 mM Glutamine (Gibco) at 37° C., 5% CO2 and 95% humidity. […]
(§2) For quantitation of nuclear staining intensity (pCREB or CREB) somatic regions were sequentially scanned using the 63× objective (Leica) in both: Leica TCS SP8-STED and Leica TCS SP5 systems. […] Unprocessed images were analysed using Fiji/ImageJ software (Schindelin et al., 2012). For visualization of the quantified channel a fire look-up table (LUT) was used. Synaptic density was quantified in secondary dendrites using Fiji/ImageJ (Schindelin et al., 2012). […] Intensity of the GluA1 channel was measured in ROIs defined by a Shank3 mask as a readout for surface AMPAR expression.

TBA2.1 mice = assay: Neuronal loss (NeuN-positive cells) in CA1 after oral Nitarsone; format: in vivo, mouse; conditions: versus vehicle-treated littermates
Protocol: Animals were anesthetized with ketamine/xylazine (Medistar) and transcardially perfused with 0.9% saline followed by 4% PFA. The brains were post-fixed in 4% PFA in PBS overnight, followed by immersion in 0.5 M sucrose for 24 h and then 1M sucrose for another 1 to 2 days or until the brains were sunken down. The brains were snap-frozen and cut into 35 μm thick coronal cryosections (Leica CM3050S, Leica-Microsystems). The sections were blocked in a buffer (0.3% TX-100, 10% NGS in PBS) for 30 min at RT, and incubated with primary antibodies diluted in the blocking solution, overnight at 4° C. Secondary antibodies were applied for 2 h at RT. Sections were counterstained with DAPI and mounted in Mowiol 4-88 (Merck Chemicals). For the detection of Aβ, the heat-based antigen retrieval method was used. […]
All quantifications were done within the distal CA1 region of the hippocampus. […] CREB and pCREB immunoreactivity of every single nucleus in a 100 μm stretch was measured in arbitrary units of pixel intensity. […] The neuronal loss was quantified based on NeuN staining (the number of neurons/CA1 length). For the quantification of microglia and astrocytes the number of cells based on overlaid DAPI and Iba-1 or GFAP signal was quantified within the rectangular ROI. Aβ plaques were counted in the region where the neuronal loss was quantified.

pCREB [2] = assay: pCREB in primary cortical cultures overexpressing poly(GA) aggregates (ALS model); format: cell-based, rodent; conditions: 5 µM nitarsone, 48 hours
TBA2.1 and 5×FAD mice = assay: Novel object recognition and location; format: in vivo, mouse
Source text: . For TBA2.1 mice (both sexes), treatment started at the age of 4 weeks. The animals were group housed and force fed for 4 weeks. […] Treatment in 5×FAD male mice started at the age of 12 weeks. Here, animals were single housed right away and given a choice between voluntary and forced feeding. […] During the course of the 7th week of treatment, animals were either subjected to perfusion to obtain their brains for subsequent immunohistochemistry or they were culled to obtained native brains for electrophysiological recordings.
The hippocampus-dependent memory was assessed using a novel object location and novel object recognition tasks. Assays were performed as described elsewhere (Andres-Alonso et al., 2019). Briefly, training and testing were done in an open field square arena made out of plastic (50 cm×50 cm). The mice were habituated in the empty arena for 20 min. Subsequently, 2 identical objects were introduced to the maze and the animals could explore the objects in 2 training session, 20 min each. 2 h afterwards, in the memory test phase, one object was replaced with an unfamiliar, unknown object (novel object recognition). Afterwards, the location of one object was changed ([…]). During all sessions, the amount of time the animals explored the objects was recorded, and a discrimination index was calculated using the formula DI=[(Tnew−Tfamiliar)/(Tnew+Tfamiliar)]*100. The arena was cleaned with 5% ethanol before and after each animal was tested.

hippocampal neurons = assay: Aβ-induced synapse loss (synaptophysin/Shank3 puncta) in dissociated hippocampal neurons; format: cell-based, rat; conditions: 5 μM Nitarsone, 48 h, 500 nM Aβ1-42
Protocol: as §1, §2

O=[N+]([O-])c1ccc([As](=O)(O)O)cc1 [Nitarsone, (4-nitrophenyl) arsonic acid]
CREB shutoff induced by Aβ oligomers for 48 h (pCREB [1]; 5 µM co-application, 500 nM Aβ oligomers, 48 h): rescued CREB shutoff | acute Aβ-induced CREB shutoff (pCREB [1]; 10 μM bath application, 30 min prior or 2 h after 500 nM Aβ for 2 h): prevented acute Aβ-induced CREB shutoff | early neuronal cell loss (TBA2.1 mice): reduced | pCREB nuclear immunoreactivity (pCREB [2]; control cells (poly (GA)-negative)): do not display any change | poly (GA)-induced decrease in pCREB nuclear immunoreactivity (pCREB [2]; poly-(GA) 175-EGFP-transduced cells): completely rescued | memory in novel location recognition task (TBA2.1 and 5×FAD mice; 5×FAD mice): rescued memory | memory in novel object recognition task (TBA2.1 and 5×FAD mice; 5×FAD mice): rescued memory | memory in novel location recognition task (TBA2.1 and 5×FAD mice; TBA2.1 mice): rescued memory | memory in novel object recognition task (TBA2.1 and 5×FAD mice; TBA2.1 mice): rescued memory | Aβ-induced synapse loss (hippocampal neurons): completely prevented
